For assay [1], the target named is Dual specificity protein kinase CLK2 (Homo sapiens) (UniProt P49760). Put plainly: Inhibition of human recombinant CLK2 at 40 nM in presence of ATP by radiometric assay relative to control.
The target in assay [2] is T1, Serine/threonine-protein kinase DCLK2 (Homo sapiens) (UniProt Q8N568).
T1 sequence (whole entry): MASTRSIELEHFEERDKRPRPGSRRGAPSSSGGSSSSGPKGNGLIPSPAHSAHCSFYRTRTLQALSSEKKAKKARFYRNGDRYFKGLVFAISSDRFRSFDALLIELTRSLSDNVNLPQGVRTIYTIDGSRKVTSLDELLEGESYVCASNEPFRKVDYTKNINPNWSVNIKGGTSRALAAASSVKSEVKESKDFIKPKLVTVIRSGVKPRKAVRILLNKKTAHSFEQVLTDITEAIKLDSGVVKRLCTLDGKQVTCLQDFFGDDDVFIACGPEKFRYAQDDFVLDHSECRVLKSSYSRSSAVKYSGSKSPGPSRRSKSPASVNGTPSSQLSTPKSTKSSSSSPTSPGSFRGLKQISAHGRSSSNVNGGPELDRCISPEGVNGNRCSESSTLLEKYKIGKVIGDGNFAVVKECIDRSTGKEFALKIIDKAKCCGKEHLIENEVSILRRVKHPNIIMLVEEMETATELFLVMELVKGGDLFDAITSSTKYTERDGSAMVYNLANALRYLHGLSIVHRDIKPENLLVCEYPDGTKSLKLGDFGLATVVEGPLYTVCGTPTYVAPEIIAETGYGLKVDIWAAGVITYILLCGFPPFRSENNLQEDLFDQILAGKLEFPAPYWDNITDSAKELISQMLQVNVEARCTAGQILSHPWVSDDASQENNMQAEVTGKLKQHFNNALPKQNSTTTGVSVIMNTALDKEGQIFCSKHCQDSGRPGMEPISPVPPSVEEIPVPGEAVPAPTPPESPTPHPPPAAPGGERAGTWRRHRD
Put plainly: Inhibition of human recombinant DCAMKL2 at 40 nM related to control ULK1.

Assay [3] has as its target Serine/threonine-protein kinase/endoribonuclease IRE1 (Homo sapiens) (UniProt O75460). Put plainly: Inhibition of human recombinant IRE1 at 40 nM related to control ULK1.
The target in assay [4] is Phosphorylase b kinase gamma catalytic chain, skeletal muscle/heart isoform (Homo sapiens) (UniProt Q16816). Put plainly: Inhibition of human recombinant PHKg1 at 40 nM related to control ULK1.
The target of assay [5] is Serine/threonine-protein kinase PAK 1 (Homo sapiens) (UniProt Q13153). The experiment in a line: Inhibition of human recombinant PAK1 at 40 nM related to control ULK1.
Assay [6] addresses Dual specificity protein kinase CLK3 (Homo sapiens) (UniProt P49761). Put plainly: Inhibition of human recombinant CLK3 at 500 nM in presence of ATP by radiometric assay relative to control.
The target in assay [7] is Serine/threonine-protein kinase MARK1 (Homo sapiens) (UniProt Q9P0L2). Put plainly: Inhibition of human recombinant MARK1 at 500 nM in presence of ATP by radiometric assay relative to control.
Assay [8] addresses Homeodomain-interacting protein kinase 3 (Homo sapiens) (UniProt Q9H422). Put plainly: Inhibition of human recombinant HIPK3 at 500 nM related to control ULK1.
In assay [9] the target is cAMP-dependent protein kinase catalytic subunit beta (Homo sapiens) (UniProt P22694). Put plainly: Inhibition of human recombinant PKACbeta at 500 nM related to control ULK1.
For assay [10], the target named is T2, Mitogen-activated protein kinase 13 (Homo sapiens) (UniProt O15264).
T2 sequence (whole entry): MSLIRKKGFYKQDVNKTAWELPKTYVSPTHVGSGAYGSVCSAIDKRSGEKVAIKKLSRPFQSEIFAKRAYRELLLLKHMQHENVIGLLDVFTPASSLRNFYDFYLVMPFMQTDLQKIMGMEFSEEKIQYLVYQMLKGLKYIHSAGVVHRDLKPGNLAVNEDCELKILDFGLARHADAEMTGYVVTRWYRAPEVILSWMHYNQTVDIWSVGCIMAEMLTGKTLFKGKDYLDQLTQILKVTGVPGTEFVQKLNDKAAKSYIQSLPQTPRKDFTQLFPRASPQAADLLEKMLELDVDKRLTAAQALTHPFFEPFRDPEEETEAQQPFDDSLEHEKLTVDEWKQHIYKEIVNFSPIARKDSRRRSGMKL
The experiment in a line: Inhibition of human recombinant p38delta at 15 nM in presence of ATP by radiometric assay relative to control.

In assay [11] the target is T3, Testis-specific serine/threonine-protein kinase 4 (Homo sapiens) (UniProt Q6SA08).
T3 sequence (whole entry): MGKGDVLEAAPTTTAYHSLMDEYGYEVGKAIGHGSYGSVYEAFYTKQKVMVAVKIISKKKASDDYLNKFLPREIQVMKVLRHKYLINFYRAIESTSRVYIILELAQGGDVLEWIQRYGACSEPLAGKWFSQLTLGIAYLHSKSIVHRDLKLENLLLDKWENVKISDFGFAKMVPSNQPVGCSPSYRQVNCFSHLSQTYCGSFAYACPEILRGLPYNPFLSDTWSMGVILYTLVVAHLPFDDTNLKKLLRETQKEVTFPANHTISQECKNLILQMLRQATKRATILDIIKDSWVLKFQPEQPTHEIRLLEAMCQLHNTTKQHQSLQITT
Put plainly: Inhibition of human recombinant TSSK4 at 15 nM in presence of ATP by radiometric assay relative to control.

The target in assay [12] is Serine/threonine-protein kinase VRK2 (Homo sapiens) (UniProt Q86Y07). The experiment in a line: Inhibition of human recombinant VRK2 at 15 nM in presence of ATP by radiometric assay relative to control.
Assay [13] concerns the target Cyclin-dependent kinase 13 (Homo sapiens) (UniProt Q14004). The experiment in a line: Inhibition of human recombinant CHED at 15 nM related to control ULK1.
For assay [14], the target named is T4, Phosphorylase b kinase gamma catalytic chain, liver/testis isoform (Homo sapiens) (UniProt P15735).
T4 sequence (whole entry): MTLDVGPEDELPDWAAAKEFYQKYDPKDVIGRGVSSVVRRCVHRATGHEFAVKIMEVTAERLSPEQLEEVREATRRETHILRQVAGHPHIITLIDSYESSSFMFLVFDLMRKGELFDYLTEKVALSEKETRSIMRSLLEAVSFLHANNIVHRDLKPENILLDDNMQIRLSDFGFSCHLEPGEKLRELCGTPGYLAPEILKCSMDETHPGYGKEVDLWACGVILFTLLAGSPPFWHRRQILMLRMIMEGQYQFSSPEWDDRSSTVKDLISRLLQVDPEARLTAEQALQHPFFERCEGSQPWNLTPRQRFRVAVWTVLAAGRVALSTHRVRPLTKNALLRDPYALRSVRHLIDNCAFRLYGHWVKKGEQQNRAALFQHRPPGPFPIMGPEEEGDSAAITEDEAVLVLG
Put plainly: Inhibition of human recombinant PHKg2 at 15 nM related to control ULK1.

For assay [15], the target named is Serine/threonine-protein kinase MAK (Homo sapiens) (UniProt P20794). Put plainly: Inhibition of human recombinant MAK at 15 nM in presence of ATP by radiometric assay relative to control.
Sequence of Serine/threonine-protein kinase MAK (Homo sapiens) (P20794 whole entry, looked up): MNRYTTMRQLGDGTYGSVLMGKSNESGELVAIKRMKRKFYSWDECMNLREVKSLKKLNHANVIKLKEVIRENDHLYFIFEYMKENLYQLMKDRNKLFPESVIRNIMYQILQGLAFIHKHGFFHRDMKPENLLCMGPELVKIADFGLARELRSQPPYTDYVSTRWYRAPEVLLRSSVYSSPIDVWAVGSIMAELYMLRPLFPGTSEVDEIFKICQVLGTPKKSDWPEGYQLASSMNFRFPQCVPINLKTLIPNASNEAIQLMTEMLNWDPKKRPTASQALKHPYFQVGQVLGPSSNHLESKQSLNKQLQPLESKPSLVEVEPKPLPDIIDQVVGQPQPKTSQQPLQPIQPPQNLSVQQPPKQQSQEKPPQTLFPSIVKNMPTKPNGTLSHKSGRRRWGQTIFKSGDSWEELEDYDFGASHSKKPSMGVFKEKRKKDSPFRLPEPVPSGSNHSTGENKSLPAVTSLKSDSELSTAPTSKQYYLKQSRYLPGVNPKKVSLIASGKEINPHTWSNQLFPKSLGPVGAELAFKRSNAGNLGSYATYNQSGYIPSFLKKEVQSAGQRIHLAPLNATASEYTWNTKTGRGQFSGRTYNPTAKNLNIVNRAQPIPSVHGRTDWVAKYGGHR

Sequence of Serine/threonine-protein kinase MARK1 (Homo sapiens) (Q9P0L2 whole entry, looked up): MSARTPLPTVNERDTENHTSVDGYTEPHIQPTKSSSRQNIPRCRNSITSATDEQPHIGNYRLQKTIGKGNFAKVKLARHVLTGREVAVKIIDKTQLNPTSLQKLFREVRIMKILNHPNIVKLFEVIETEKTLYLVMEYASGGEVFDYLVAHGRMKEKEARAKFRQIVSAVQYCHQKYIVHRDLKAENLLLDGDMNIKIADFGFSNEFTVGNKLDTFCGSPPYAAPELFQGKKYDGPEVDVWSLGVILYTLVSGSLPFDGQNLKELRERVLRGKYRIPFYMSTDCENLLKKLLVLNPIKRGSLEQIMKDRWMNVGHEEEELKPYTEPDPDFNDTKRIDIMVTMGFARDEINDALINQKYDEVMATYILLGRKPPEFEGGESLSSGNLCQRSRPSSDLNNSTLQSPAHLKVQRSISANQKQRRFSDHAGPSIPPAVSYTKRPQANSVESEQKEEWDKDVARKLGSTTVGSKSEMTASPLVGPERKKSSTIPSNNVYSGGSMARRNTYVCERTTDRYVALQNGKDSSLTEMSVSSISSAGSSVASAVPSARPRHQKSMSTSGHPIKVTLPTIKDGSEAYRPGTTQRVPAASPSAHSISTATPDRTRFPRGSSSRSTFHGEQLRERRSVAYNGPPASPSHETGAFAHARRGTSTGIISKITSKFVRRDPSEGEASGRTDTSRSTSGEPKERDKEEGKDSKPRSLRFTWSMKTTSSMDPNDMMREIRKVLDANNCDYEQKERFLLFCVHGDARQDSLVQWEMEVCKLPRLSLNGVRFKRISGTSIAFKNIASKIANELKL
Sequence of Dual specificity protein kinase CLK3 (Homo sapiens) (P49761 whole entry, looked up): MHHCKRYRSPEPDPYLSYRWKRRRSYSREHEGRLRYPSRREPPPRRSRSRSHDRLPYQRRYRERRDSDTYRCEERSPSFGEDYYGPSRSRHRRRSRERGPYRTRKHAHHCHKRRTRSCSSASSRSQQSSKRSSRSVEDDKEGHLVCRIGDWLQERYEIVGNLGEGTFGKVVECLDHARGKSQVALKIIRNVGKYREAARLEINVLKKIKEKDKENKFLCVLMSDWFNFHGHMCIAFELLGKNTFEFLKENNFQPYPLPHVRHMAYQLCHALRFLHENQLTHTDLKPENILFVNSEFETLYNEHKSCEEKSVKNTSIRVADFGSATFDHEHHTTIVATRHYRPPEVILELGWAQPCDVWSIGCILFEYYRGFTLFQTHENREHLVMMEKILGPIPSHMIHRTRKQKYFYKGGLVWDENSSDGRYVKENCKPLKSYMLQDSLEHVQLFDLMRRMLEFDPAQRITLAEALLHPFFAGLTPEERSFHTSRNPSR
Sequence of Serine/threonine-protein kinase/endoribonuclease IRE1 (Homo sapiens) (O75460 19-977 limits assumed): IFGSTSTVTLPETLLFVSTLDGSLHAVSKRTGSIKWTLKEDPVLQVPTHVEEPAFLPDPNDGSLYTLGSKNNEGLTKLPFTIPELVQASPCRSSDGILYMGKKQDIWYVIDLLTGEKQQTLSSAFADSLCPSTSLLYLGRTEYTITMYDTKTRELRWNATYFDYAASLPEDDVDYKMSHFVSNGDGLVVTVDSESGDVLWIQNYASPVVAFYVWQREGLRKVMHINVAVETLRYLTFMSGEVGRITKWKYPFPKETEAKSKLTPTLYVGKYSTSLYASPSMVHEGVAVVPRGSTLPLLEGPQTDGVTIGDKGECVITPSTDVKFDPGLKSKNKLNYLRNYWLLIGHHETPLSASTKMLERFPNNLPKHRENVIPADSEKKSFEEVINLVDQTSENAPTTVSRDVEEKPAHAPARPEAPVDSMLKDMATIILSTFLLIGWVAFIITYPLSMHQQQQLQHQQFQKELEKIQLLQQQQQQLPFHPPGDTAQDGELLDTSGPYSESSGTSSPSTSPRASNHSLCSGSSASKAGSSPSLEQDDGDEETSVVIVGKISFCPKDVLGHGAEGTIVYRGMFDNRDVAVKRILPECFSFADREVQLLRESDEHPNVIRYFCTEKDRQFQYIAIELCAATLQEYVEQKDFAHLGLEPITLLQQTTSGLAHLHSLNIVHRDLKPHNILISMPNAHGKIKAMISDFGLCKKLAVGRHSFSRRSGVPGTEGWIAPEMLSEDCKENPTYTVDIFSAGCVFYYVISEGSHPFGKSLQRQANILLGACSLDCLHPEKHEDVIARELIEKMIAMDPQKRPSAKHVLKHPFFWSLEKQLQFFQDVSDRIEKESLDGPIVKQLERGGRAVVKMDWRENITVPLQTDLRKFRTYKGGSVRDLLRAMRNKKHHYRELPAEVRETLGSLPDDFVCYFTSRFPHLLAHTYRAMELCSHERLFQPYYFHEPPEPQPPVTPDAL
Sequence of Dual specificity protein kinase CLK2 (Homo sapiens) (P49760 whole entry, looked up): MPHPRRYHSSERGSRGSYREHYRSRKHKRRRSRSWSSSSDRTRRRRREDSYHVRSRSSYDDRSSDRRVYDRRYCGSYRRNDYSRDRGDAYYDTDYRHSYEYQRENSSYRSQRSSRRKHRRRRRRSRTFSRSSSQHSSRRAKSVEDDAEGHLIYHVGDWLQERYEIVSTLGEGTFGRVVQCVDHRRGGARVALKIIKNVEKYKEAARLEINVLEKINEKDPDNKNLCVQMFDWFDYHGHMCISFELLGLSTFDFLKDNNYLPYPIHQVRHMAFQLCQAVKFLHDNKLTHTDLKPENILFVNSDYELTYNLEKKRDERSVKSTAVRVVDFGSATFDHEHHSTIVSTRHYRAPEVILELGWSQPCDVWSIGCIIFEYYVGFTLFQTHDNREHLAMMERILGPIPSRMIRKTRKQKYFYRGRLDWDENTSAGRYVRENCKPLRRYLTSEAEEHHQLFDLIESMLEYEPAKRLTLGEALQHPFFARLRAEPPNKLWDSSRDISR
Sequence of Phosphorylase b kinase gamma catalytic chain, skeletal muscle/heart isoform (Homo sapiens) (Q16816 whole entry, looked up, canonical isoform): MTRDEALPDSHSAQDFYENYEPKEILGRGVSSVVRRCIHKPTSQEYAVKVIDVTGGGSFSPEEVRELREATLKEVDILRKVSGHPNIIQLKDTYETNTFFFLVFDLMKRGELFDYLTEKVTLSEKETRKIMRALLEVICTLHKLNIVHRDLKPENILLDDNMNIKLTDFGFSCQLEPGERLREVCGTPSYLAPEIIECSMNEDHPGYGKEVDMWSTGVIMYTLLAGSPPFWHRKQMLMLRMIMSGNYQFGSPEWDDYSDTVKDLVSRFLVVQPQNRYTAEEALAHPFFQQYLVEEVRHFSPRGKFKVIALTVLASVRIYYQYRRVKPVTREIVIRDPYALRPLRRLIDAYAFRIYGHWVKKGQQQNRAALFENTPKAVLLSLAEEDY
Sequence of Serine/threonine-protein kinase PAK 1 (Homo sapiens) (Q13153 whole entry, looked up): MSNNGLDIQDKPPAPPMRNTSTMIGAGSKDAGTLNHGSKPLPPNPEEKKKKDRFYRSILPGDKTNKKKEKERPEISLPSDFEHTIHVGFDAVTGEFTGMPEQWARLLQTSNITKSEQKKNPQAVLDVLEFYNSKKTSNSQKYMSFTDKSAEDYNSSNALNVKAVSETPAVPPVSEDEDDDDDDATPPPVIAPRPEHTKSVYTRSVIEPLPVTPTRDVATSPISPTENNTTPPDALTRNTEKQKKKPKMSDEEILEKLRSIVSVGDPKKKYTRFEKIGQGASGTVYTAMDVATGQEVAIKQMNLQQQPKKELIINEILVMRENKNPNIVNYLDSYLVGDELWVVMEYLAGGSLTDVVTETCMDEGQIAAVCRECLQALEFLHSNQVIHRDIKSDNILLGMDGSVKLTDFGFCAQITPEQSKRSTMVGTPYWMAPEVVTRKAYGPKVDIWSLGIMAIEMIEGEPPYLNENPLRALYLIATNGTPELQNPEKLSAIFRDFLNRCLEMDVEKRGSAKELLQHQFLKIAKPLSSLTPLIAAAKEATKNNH
Sequence of Serine/threonine-protein kinase VRK2 (Homo sapiens) (Q86Y07 whole entry): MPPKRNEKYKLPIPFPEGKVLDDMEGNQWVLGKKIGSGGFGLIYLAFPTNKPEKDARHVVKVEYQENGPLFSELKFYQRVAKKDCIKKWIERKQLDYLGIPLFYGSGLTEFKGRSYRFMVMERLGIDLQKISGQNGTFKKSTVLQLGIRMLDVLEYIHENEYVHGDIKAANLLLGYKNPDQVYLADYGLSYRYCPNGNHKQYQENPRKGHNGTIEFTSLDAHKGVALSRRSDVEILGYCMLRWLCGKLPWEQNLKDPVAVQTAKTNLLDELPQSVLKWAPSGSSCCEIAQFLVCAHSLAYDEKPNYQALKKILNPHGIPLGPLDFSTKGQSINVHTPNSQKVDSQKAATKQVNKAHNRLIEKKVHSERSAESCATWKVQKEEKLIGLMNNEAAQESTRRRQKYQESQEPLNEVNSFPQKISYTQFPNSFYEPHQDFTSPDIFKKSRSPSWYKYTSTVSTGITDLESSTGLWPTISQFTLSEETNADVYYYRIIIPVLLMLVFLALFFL

Take `O=C(N[C@@H](C1CC1)C(F)(F)F)c1cc(-c2cnn3cc(-c4ccc(F)cc4)cnc23)cs1`: in assay [1], the inhibition (usually the change of the read-out against control, counted positive when it falls) was determined as 19%. In addition, the fold change (FC) came out at 0 in assay [2], 0 in [3], 0.16 in [4] and 0 in assay [5].
For the molecule `CNC(=O)c1ccccc1Oc1nc(Nc2cc(OC)c(OC)c(OC)c2)ncc1Br`, the inhibition in [6] amounted to 0%; in [7] it was 54%. In addition, the fold change (FC) in assay [8] amounted to 0.08; in [9] it was 0.
Consider `CC(C)[C@H](NC(=O)c1cc(-c2cnn3cc(-c4ccc(OCCN5CCCCC5)cc4)cnc23)cs1)C(F)(F)F`, for which the inhibition in assay [10] came out at 6%; in assay [11], 0%; in assay [12], 0%; in assay [15], 5%. The fold change (FC) worked out at 0 in assay [13] and 0.1 in assay [14].
